Source: US20240327459A1, “PEPTIDE FRAGMENTS FOR TREATMENT OF DIABETES” (Follicum AB, priority 2018, published 2024)
Entries after “also recorded” stand apart in the source; their conditions may differ.

How the values were obtained:
INS-1E cells [1] = experiment: Insulin secreting capacity after 72 hours of glucotoxic conditions (Examples 19, 22); format: cell-based, rat; conditions: Example 19, 20 mM glucose 72 hours with peptide, then 16.7 mM glucose 1 h
Procedure: To investigate the β-cell protective effect of FOL-056, we subjected INS-1E to cytotoxic levels of glucose for 72 hours. Rat INS-1E cells were seeded in 96-well plates (2×10^3 cells/well) in cRPMI medium. Following 72 hours of incubation, the medium was changed to RPMI containing 20 mM glucose with or without FOL-056 or FOL-014 and were cultured at 37° C. during an additional 72 hours to induce glucotoxicity. RPMI containing 5 mM glucose was included as a low glucose control. Following 72 hours, the medium was removed and the INS-1E cells were equilibrated in Krebs-Ringer bicarbonate buffer (KREB), pH 7.4, (supplemented with 10 mM HEPES, 0.1% bovine serum albumin and 2.8 mM glucose) for 2 hours. After equilibration, the buffer was changed and the INS-1E cells were incubated in KREBs containing 16.7 mM glucose […] during 1 h. Immediately after incubation, an aliquot of the buffer was removed and frozen for subsequent assay of insulin content.
To investigate the β-cell protective effect of several novel peptide fragments derived from FOL-005 and FOL-014, INS-1 cells were subjected to cytotoxic levels of glucose for 72 hours. […] In order to correct for the variance between experiments, all values were normalized to, and expressed as percentage of the average value of the high glucose control in the individual experiments. […]

wild type C57bl/6 mice = experiment: Intraperitoneal glucose tolerance test (IPGTT); format: in vivo, mouse; conditions: 15 min before 2 g glucose/kg ip, vs saline control
Procedure: Whole blood was collected for glucose and insulin measurements from 10-week-old wild type maleC57bl/6 mice. After a 4 hour fast, the mice were divided into three groups and given an intraperitoneal injection (ip) of either saline, 30 nmol/kg peptide (FIG. 9A) or 200 nmol/kg peptide (FIG. 9B). 15 min after the FOL-014 or saline (control) injections, the mice were administered 2 g of glucose/kg ip. Blood glucose concentrations were measured at 5, 15, 30, 45 and 60 minutes after the glucose injection. Statistical calculations were performed using student's t-test. […] In addition, the difference was significant at 15, 30 and 45 minutes.

[2] = test system: human pancreatic β-cell line 1.2B4; experiment: Insulin secretion from 1.2B4 human β-cells; format: cell-based; conditions: 100 nM peptide, 16.7 mM glucose, 60 minutes
Procedure: In order to test the effect of FOL-014 and FOL-056 in human cells, the human pancreatic β-cell line 1.2B4 were cultured at 37° C. and 5% CO2 in RPMI 1640 supplemented with 10% fetal bovine serum, 50 IU/mL penicillin, 50 mg/L streptomycin, 1 mM L-glutamine. 1.2B4 cells were seeded in 24-well plates in RPMI medium and following overnight incubation, the medium was removed before pre-incubation for 40 min at 37° C. in Krebs-Ringer bicarbonate buffer, pH 7.4, supplemented with 10 mM HEPES, 0.1% bovine serum albumin and 1.0 mM glucose. Following pre-incubation, the buffer was exchanged with fresh Krebs-Ringer buffer as described above and supplemented with specific glucose concentrations, 1 mM or 16.7 mM. FOL-014, FOL-056 or Liraglutide was added at a concentration of 100 nM in the presence of 16.7 mM glucose. Immediately after 60 minutes incubation at 37° C., an aliquot of the buffer was removed and frozen for subsequent insulin ELISA assay. (FIG. 18)

isolated mouse islets = experiment: Insulin and glucagon secretion from isolated mouse islets (Example 12); format: cell-based
Procedure: Twelve-week-old male C57/bl6 mice were euthanized with isoflurane and cervical dislocation. After clamping the hepatic ducts, 3 ml of 0.9 U/ml collagenase P was injected into the bile duct to inflate the pancreas. The pancreas was then removed and digested for 19 min at 37° C. The samples were vigorously shaken to disrupt the tissue. The digest was quickly transferred into ice cold Hank's Balanced Salts Solution with Ca^2+ and Mg^2+. The suspension was allowed to sit for 8 min to allow the islet to sink, and the islets were washed in the same manner four times. The islets were then handpicked and sorted according to size.
Freshly isolated islets were seeded in groups of 5 in a 96-well plate and preincubated for 1 h at 37° C. in a Krebs-Ringer bicarbonate buffer (pH 7.4). The islets were incubated for 1 h at 37° C. in Krebs-Ringer buffered solution supplemented with 0.6 or 6 μM FOL-014 or 100 nM GLP-1 or left unsupplemented for control. Immediately after incubation, the medium was removed for assays of insulin and glucagon using Mercodia's ELISA kits. The effect of FOL-014 on insulin (FIGS. 8A and B) and glucagon (FIGS. 8C and D) secretion from isolated mouse islets was measured in the presence of low glucose (2.8 mM; FIGS. 8A and C) or high glucose (16.7 mM; FIGS. 8B and D) concentrations.

INS-1E cells [3] = experiment: Insulin secretion from INS-1E cells (Example 18); format: cell-based, rat; conditions: 100 nM peptide, high (16.7 mM) glucose buffer, 60 min, vs un-supplemented buffer
Procedure: To investigate the stimulatory effect of FOL-056 on insulin secretion we used INS-1E cells. The cells were seeded overnight and washed with PBS before pre-incubation for 60 min at 37° C. in Krebs-Ringer bicarbonate buffer (KRB), pH 7.4, supplemented with 10 mM HEPES, 0.1% bovine serum albumin. Following pre-incubation, the buffer was discarded and the INS-1E cells were incubated in fresh KRB buffer supplemented with 10 mM HEPES, 0.1% bovine serum albumin with or without peptide FOL-056. For comparative purposes cells treated with FOL-014 was included. Following 60 min incubation at 37.C, the buffer was removed and frozen for subsequent insulin assay.

[4] = low glucose (2.8 mM), FOL-014 0.6 or 6 μM

For “KPLAEIDSIELSYGIK (MISC_FEATURE - peptide, FOL-014)”, the “insulin secreting ability after glucotoxic conditions” value (INS-1E cells [1]) was “significantly improved the insulin secreting ability of the β-cells as compared with high glucose media alone”, the plasma glucose levels (wild type C57bl/6 mice; 30 nmol/kg ip) was “lowered the plasma glucose levels with a significant effect at 45 minutes after the glucose injection” and the plasma glucose levels (wild type C57bl/6 mice; 200 nmol/kg ip) was “significantly lowered the plasma glucose levels as compared to the control when measured as area under the curve; also recorded: significantly lowered the plasma glucose levels as compared to the control at 15 minutes, 30 minutes and 45 minutes”. The insulin secretion [2] was “increase the insulin secretion capacity in 1.2B4 human β-cells; also recorded: significantly increased the insulin secretion as compared with cells treated with an un-supplemented high glucose buffer”, the insulin secretion (isolated mouse islets; high glucose (16.7 mM), 600 nM) was “significantly increased insulin secretion” and the insulin secretion (isolated mouse islets; high glucose (16.7 mM), 6 μM) was “but not 6 μM FOL-014, significantly increased insulin secretion”. For the same sequence, the glucagon secretion (isolated mouse islets; high glucose (16.7 mM), both concentrations (0.6 and 6 μM)) was “efficiently reduced glucagon secretion”, the glucagon secretion (isolated mouse islets; [4]) was “reduced glucagon secretion as compared with control and GLP-1” and the insulin secretion (isolated mouse islets; [4]) was “did not increase insulin secretion”. For the same sequence, the insulin secretion (INS-1E cells [3]) was “resulted in a significant increase in insulin secretion”.
